In ChEMBL document CHEMBL5029142, “Stapled Wasp Venom-Derived Oncolytic Peptides with Side Chains Induce Rapid Membrane Lysis and Prolonged Immune Responses in Melanoma” (J Med Chem, 2021):
The source made the active and inactive calls. No cut-off for these calls is given here. Starred links: 1 amine or outer side, 2 acyl side, 3 side chain; linkers in the order of their positions; H or OH if unused. Positions of bridges follow the written chain, without caps; N, C: chain ends. Non-standard residues stand in square brackets, D forms with d. Residues, ends and D or L forms follow the SMILES beside them. ξ: configuration not given here. ξαMeNle(6-ylidene) = CC(CCCC=[*:3])(N[*:1])C(=O)[*:2]; X1 = CC(C)C[C@@](CCCC=[*:3])(N[*:1])C(=O)[*:2]; X2 = NCCCC[C@@](CCCC=[*:3])(N[*:1])C(=O)[*:2]; Dip = N[C@H](C(=O)O)C(c1ccccc1)c1ccccc1; S5 = C=CCCC[C@](C)(N)C(=O)O

Key:
4T1 [1] = assay: Antiproliferative activity against triple-negative mouse 4T1 cells assessed as inhibition of cell growth measured after 24 hrs by Cell Counting Kit-8 assay; type: functional, cell-based; conditions: 4T1, 24 h
B16-F10 [2] = assay: Antiproliferative activity against mouse B16-F10 cells assessed as inhibition of cell growth measured after 24 hrs by Cell Counting Kit-8 assay; type: functional, cell-based; conditions: B16-F10, 24 h
[3] = Toxicity in 4T1 tumor bearing BALB/c mouse assessed as increase in body weight at 1 mg, IT administered once daily for 3 consecutive days starting from day 2 post inoculation; conditions: in vivo, other, 72 h, time 3 day
B16-F10 [4] = assay: (§1) Antitumor activity against mouse B16-F10 cells implanted in C57 mouse assessed as increase in infiltration of CD8 positive T cells into tumors at 1 mg, IT administered once daily for 3 consecutive days starting from day 5 post inoculation and measured after 10 days by histochemical staining based analysis; type: functional, cell-based; conditions: time 10.0 day
4T1 [5] = assay: Cytotoxicity against mouse 4T1 cells assessed as disruption of cells by measuring increase in red fluorescence at 10 uM measured up to 3 hrs by calcein-AM and PI dual staining based live/dead cell viability assay; type: functional; conditions: time hrs <=3
B16-F10 [6] = assay: Antitumor activity against mouse B16-F10 cells implanted in C57 mouse assessed as reduction in tumor growth at 1 mg, IT administered once daily for 3 consecutive days starting from day 5 post inoculation; type: functional, cell-based; conditions: time 3.0 day
4T1 [7] = assay: Cytotoxicity against mouse 4T1 cells assessed as loss of membrane integrity by measuring increase in LDH release incubated for 24 hrs by LDH release assay; type: functional, cell-based
B16-F10 [8] = assay: as §1, with “CD4” for “CD8”; type: functional, cell-based; conditions: time 10.0 day
4T1 [9] = assay: as §1, with “mouse 4T1” for “mouse B16-F10”, “of CD4” for “of CD8”, “T lymphocytes in” for “T cells into”, “day 2” for “day 5”, “after 7” for “after 10”; type: functional, cell-based; conditions: time 7.0 day
[10] = Toxicity in B16-F10 tumor bearing C57 mouse assessed as change in body weight at 1 mg, IT administered once daily for 3 consecutive days starting from day 5 post inoculation; conditions: in vivo, other, 72 h, time 3 day
[11] = Stability of the compound assessed as alpha chymotrypsin (unknown origin)-mediated proteolysis by measuring degradation half life at 1 mM measured up to 12 hrs by HPLC analysis; type: ADME; conditions: human; for half-life at 1000 µM: alpha-chymotrypsin
4T1 [12] = assay: as §1, with “mouse 4T1” for “mouse B16-F10”, “T lymphocytes in” for “T cells into”, “day 2” for “day 5”, “after 7” for “after 10”; type: functional, cell-based; conditions: time 7.0 day
B16-F10 [13] = assay: Antitumor activity against mouse B16-F10 cells implanted in C57 mouse assessed as induction of cell necrosis by measuring reduction in live cells at 1 mg, IT administered once daily for 3 consecutive days starting from day 5 post inoculation and measured after 10 to 14 days by hematoxylin-eosin staining based assay; type: functional; conditions: time 10-14 day
[14] = Hemolytic activity in mouse RBC assessed as hemoglobin release at 80 uM incubated for 1 hr by absorbance based method relative to control; type: ADME, tissue-based, Erythrocyte; conditions: mouse red blood cells, read-out: Activity
B16-F10 [15] = assay: Antitumor immunity against mouse B16-F10 cells implanted in anti-CD8 positive antibody stimulated C57 mouse assessed as inhibition of tumor progression at 1 mg, IT administered once daily for 3 consecutive days starting from day 7 and measured after 20 days; type: functional, cell-based; conditions: time 20.0 day
4T1 [16] = assay: Antitumor activity against mouse 4T1 cells implanted in BALB/c mouse assessed as necrosis at 1 mg, IT administered once daily for 3 consecutive days starting from day 2 post inoculation and measured on day 18 by hematoxylin-eosin staining based assay; type: functional, cell-based; conditions: time 18.0 day
4T1 [17] = assay: Antitumor activity against mouse 4T1 cells implanted in BALB/c mouse assessed as inhibition of tumor progression at 1 mg, IT administered once daily for 3 consecutive days starting from day 2 post inoculation; type: functional, cell-based; conditions: time 3.0 day
4T1 [18] = assay: Antitumor activity against mouse 4T1 cells implanted in BALB/c mouse assessed as necrosis at 1 mg, IT administered once daily for 3 consecutive days starting from day 2 post inoculation and measured on day 7 by hematoxylin-eosin staining based assay; type: functional, cell-based; conditions: time 7.0 day
B16-F10 [19] = assay: Antitumor immunity against mouse B16-F10 cells implanted in anti-CD8 positive antibody stimulated C57 mouse assessed as inhibition of tumor progression at 1 mg, IT administered once daily for 3 consecutive days starting from day 7 and measured after 40 days; type: functional, cell-based; conditions: time 40.0 day
4T1 [20] = assay: Cytotoxicity against mouse 4T1 cells assessed as permeabilization in to cell membrane at 10 uM measured up to 3 hrs by calcein-AM and PI dual staining based live/dead cell viability assay; type: functional; conditions: time hrs <=3, TDE = time-dependent effect
B16-F10 [21] = assay: Antitumor immunity against mouse B16-F10 cells implanted in C57 mouse assessed as release of HMGB-1 at IC75 measured after 6 hrs by Hoechst 33342 staining based confocal microscopic analysis; type: functional, cell-based
[22] = Hemolytic activity in mouse RBC assessed as hemoglobin release at 20 to 80 uM incubated for 1 hr by absorbance based method; type: tissue-based; conditions: erythrocyte, dose 20-80 µM
4T1 [23] = assay: Induction of morphological changes in mouse 4T1 cells assessed as change in adhesion measured up to 10 mins by bright field 3D live-cell imaging analysis; type: functional, cell-based; conditions: time min <=10
4T1 [24] = assay: Antitumor immunity against mouse 4T1 cells implanted in […] mouse assessed as release of HMGB-1 at IC75 measured after 6 hrs by Hoechst 33342 staining based confocal microscopic analysis; type: functional, cell-based
4T1 [25] = assay: Induction of morphological changes in mouse 4T1 cells assessed as appearance of broken cell particles measured after 5 mins by bright field 3D live-cell imaging analysis; type: functional, cell-based
4T1 [26] = assay: Antitumor immunity against mouse 4T1 cells implanted in […] mouse assessed as surface translocation of calreticulin at IC75 measured after 6 hrs by DiR/Hoechst 33342 staining based confocal microscopic analysis; type: functional, cell-based
[27] = Stability of the compound assessed as alpha chymotrypsin (unknown origin)-mediated proteolysis by measuring parent compound remaining at 1 mM measured up to 12 hrs by HPLC analysis; type: ADME; conditions: human, read-out: Stability
B16-F10 [28] = assay: Antitumor immunity against mouse B16-F10 cells implanted in C57 mouse assessed as surface translocation of calreticulin at IC75 measured after 6 hrs by DiR/Hoechst 33342 staining based confocal microscopic analysis; type: functional, cell-based
4T1 [29] = assay: Cytotoxicity against mouse 4T1 cells assessed as increase in extracellular ATP level at 50 uM measured up to 60 mins by luminometric method; type: functional, cell-based; conditions: time min <=60

Row | SMILES | IC50 (4T1 [1]) | IC50 (B16-F10 [2]) | Activity [3] | Activity (B16-F10 [4]) | Activity (4T1 [5]) | Activity (B16-F10 [6]) | Activity (4T1 [7]) | Activity (B16-F10 [8]) | Activity (4T1 [9]) | Activity [10] | Activity (4T1 [12]) | Activity (B16-F10 [13]) | Activity (4T1 [16]) | Activity (4T1 [17]) | Activity (4T1 [18]) | also measured
1 | CC[C@H](C)[C@@H]1NC(=O)[C@H](CCCNC(=N)N)NC(=O)[C@@](C)(NC(=O)[C@H](CC(C)C)NC(=O)[C@H](CC(C)C)NC(=O)CN)CCC/C=C\CCC[C@@](C)(C(=O)N[C@@H](CC(C)C)C(=O)N[C@@H](CC(C)C)C(N)=O)NC(=O)[C@H](CCCCN)NC1=O (H-GLL[S5]RIK[S5]LL-NH2; staple (Z) 4-8) | 33.5 µM | 59.7 µM |  |  |  |  |  |  |  |  |  |  |  |  |  | 
2 | CC[C@H](C)[C@H](NC(=O)[C@H](CCCNC(=N)N)NC(=O)[C@H](CCCCN)NC(=O)[C@H](CC(C)C)NC(=O)[C@H](CC(C)C)NC(=O)CN)C(=O)N[C@@H](CCCCN)C(=O)N[C@H](C(=O)N[C@@H](CC(C)C)C(=O)N[C@@H](CC(C)C)C(N)=O)[C@@H](C)O [ANOPLIN] (H-GLLKRIKTLL-NH2) | 191 µM | > 400 µM | Non-Toxic | Active | inactive | inactive | Dose-Dependent Effect | Active | inactive | Non-Toxic | inactive |  |  |  |  | half-life at 1000 µM [11]: 12 min
3 | CC[C@H](C)[C@@H]1NC(=O)[C@H](CCCNC(=N)N)NC(=O)[C@H](CCCCN)NC(=O)[C@@](CC(C)C)(NC(=O)[C@H](CC(C)C)NC(=O)CN)CCC/C=C\CCC[C@@](CCCCN)(C(=O)N[C@H](C(=O)N[C@@H](CC(C)C)C(=O)N[C@@H](CC(C)C)C(N)=O)[C@@H](C)O)NC1=O (H-GL[X1]KRI[X2]TLL-NH2; staple (Z) 3-7) | 6.57 µM | 30.4 µM | Non-Toxic | Active |  | Active |  | Active | inactive | Non-Toxic | inactive | Active | inactive | inactive | Active | hemolysis at 1 h, 80 µM [14]: < 10%; Activity (B16-F10 [15]): inactive; Activity (B16-F10 [19]): inactive; Activity (4T1 [20]): Tde
4 | CC(C)C[C@H](NC(=O)CN)C(=O)N[C@@H](CC(C)C)C(=O)N[C@@H](CCCCN)C(=O)N[C@@H](CCCNC(=N)N)C(=O)N[C@@]1(C)CCC/C=C\CCC[C@@](C)(C(N)=O)NC(=O)[C@H](CC(C)C)NC(=O)[C@H]([C@@H](C)O)NC(=O)[C@H](CCCCN)NC1=O (H-GLLKR[S5]KTL[S5]-NH2; staple (Z) 6-10) | 31.2 µM | 66.1 µM |  |  |  |  |  |  |  |  |  |  |  |  |  | 
5 | CC[C@H](C)[C@@H]1NC(=O)[C@H](CCCNC(=N)N)NC(=O)[C@H](CCCCN)NC(=O)[C@@](C)(NC(=O)[C@H](CC(C)C)NC(=O)CN)CCC/C=C\CCC[C@@](C)(C(=O)N[C@H](C(=O)N[C@@H](CC(C)C)C(=O)N[C@@H](CC(C)C)C(N)=O)[C@@H](C)O)NC1=O (H-GL[S5]KRI[S5]TLL-NH2; staple (Z) 3-7) | 4.02 µM | 16.1 µM | Non-Toxic | Active | Active | Active | Dose-Dependent Effect | Active | inactive | Non-Toxic | inactive | Active | inactive | inactive | Active | Activity (B16-F10 [21]): Active; Activity [22]: Toxic; Activity (4T1 [23]): Active; Activity (4T1 [24]): Active; Activity (4T1 [25]): Active; Stability ([11]; 12 h, 1000 µM): Stable; Activity (4T1 [26]): Active; remaining at 12 h, 1000 µM [27]: > 60%; Activity (B16-F10 [28]): Active; Activity (4T1 [29]): Active
6 | NCCCC[C@H](NC(=O)[C@@H](NC(=O)[C@H](Cc1c[nH]c2ccccc12)NC(=O)[C@H](CCCCN)NC(=O)[C@H](CCCCN)NC(=O)[C@H](Cc1c[nH]c2ccccc12)NC(=O)[C@H](Cc1c[nH]c2ccccc12)NC(=O)[C@H](CCCCN)NC(=O)[C@@H](N)CCCCN)C(c1ccccc1)c1ccccc1)C(N)=O [RUXOTEMITIDE] (H-KKWWKKW[Dip]K-NH2) |  |  | Non-Toxic | Active | Active | Active | Dose-Dependent Effect | Active | inactive | Non-Toxic | inactive | Active | inactive | inactive | Active | half-life at 1000 µM [11]: 34 min; Activity (4T1 [29]): Active
7 | CC[C@H](C)[C@H](NC(=O)[C@]1(C)CCC/C=C\CCCC(C)(N)C(=O)N[C@@H](CC(C)C)C(=O)N[C@@H](CC(C)C)C(=O)N[C@@H](CCCCN)C(=O)N1)C(=O)N[C@@H](CCCCN)C(=O)N[C@H](C(=O)N[C@@H](CC(C)C)C(=O)N[C@@H](CC(C)C)C(N)=O)[C@@H](C)O (stereo partly drawn) (H-[ξαMeNle(6-ylidene)]LLK[S5]IKTLL-NH2; staple (Z) 1-5) | 5.15 µM | 15.1 µM |  |  |  |  |  |  |  |  |  |  |  |  |  | Activity [22]: Toxic
8 | CC[C@H](C)[C@@H]1NC(=O)[C@@](C)(NC(=O)[C@H](CCCCN)NC(=O)[C@H](CC(C)C)NC(=O)[C@H](CC(C)C)NC(=O)CN)CCC/C=C\CCC[C@@](C)(C(=O)N[C@@H](CC(C)C)C(N)=O)NC(=O)[C@H]([C@@H](C)O)NC(=O)[C@H](CCCCN)NC1=O (H-GLLK[S5]IKT[S5]L-NH2; staple (Z) 5-9) | 5.15 µM | 15.7 µM |  |  |  |  |  |  |  |  |  |  |  |  |  | 
